Reference: article PMC6679423 (International Journal of Molecular Sciences, 2019)

What was measured:
human recombinant CYP2C8 = experiment: Vandetanib oxidation by human recombinant CYP2C8 (Supersomes); format: in vitro ADME
Description: Vandetanib was from LC Laboratories (Woburn, MA, USA). Ketoconazole, NADPH, methimazol and other chemicals were all purchased from Sigma-Aldrich (St. Louis, MO, USA). The purity of all chemicals met the standards of American Chemical Society, unless noted otherwise. All animal experiments were conducted in accordance with the Regulations for the Care and Use of Laboratory Animals (311/1997, Ministry of Agriculture, Czech Republic), which follows the Declaration of Helsinki. Male Wistar rats (~125–150 g; AnLab, Czech Republic), male C57BL/6 mice ([…]; CXR Bioscience Ltd., Dundee, UK), and male New Zealand rabbits (2.5–3 kg; AnLab, Czech Republic) were employed as animal models. Animals were placed in cages in temperature- and humidity-controlled rooms, acclimatized for five days and maintained at 22 °C with a 12 h light/dark period. Standardized diet and water were provided ad libitum. Rats, mice and rabbits used to prepare microsomal fraction from untreated animals were sacrificed by cervical dislocation, livers snap-frozen in liquid nitrogen and stored at −80 °C until further processing (see below). […] Protein concentrations in the microsomal fractions were assessed using the bicinchoninic acid protein assay with bovine serum albumin as a standard. […]

human recombinant CYP1A1 = target: T1, human recombinant CYP1A1 (Homo sapiens, UniProt P04798); experiment: Vandetanib oxidation by human recombinant CYP1A1 (Supersomes); format: in vitro ADME
T1 construct: purchased Gentest Corp; host or cells: insect cells (baculovirus)
T1 sequence (P04798 1-512): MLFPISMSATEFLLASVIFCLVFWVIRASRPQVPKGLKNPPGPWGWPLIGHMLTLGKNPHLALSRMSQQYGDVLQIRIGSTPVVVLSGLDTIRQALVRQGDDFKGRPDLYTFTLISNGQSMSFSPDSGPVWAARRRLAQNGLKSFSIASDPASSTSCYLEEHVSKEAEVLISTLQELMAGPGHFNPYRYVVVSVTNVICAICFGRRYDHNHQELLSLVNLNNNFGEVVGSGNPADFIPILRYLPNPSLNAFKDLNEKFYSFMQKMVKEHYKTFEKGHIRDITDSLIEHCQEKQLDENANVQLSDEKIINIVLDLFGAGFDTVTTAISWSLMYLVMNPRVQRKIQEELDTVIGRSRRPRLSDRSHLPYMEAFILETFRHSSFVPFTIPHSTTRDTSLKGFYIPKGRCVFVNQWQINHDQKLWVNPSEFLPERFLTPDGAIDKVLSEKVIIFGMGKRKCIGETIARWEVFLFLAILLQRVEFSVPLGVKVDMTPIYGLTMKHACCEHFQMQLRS
Description: Vandetanib was from LC Laboratories (Woburn, MA, USA). Ketoconazole, NADPH, methimazol and other chemicals were all purchased from Sigma-Aldrich (St. Louis, MO, USA). The purity of all chemicals met the standards of American Chemical Society, unless noted otherwise. All animal experiments were conducted in accordance with the Regulations for the Care and Use of Laboratory Animals (311/1997, Ministry of Agriculture, Czech Republic), which follows the Declaration of Helsinki. Male Wistar rats (~125–150 g; AnLab, Czech Republic), male C57BL/6 mice ([…]; CXR Bioscience Ltd., Dundee, UK), and male New Zealand rabbits (2.5–3 kg; AnLab, Czech Republic) were employed as animal models. Animals were placed in cages in temperature- and humidity-controlled rooms, acclimatized for five days and maintained at 22 °C with a 12 h light/dark period. Standardized diet and water were provided ad libitum. Rats, mice and rabbits used to prepare microsomal fraction from untreated animals were sacrificed by cervical dislocation, livers snap-frozen in liquid nitrogen and stored at −80 °C until further processing (see below). For controls, livers of the animals were removed immediately after sacrifice, divided into small pieces (~1 g), snap-frozen in liquid nitrogen, and stored at −80 °C until isolation of microsomal fractions. Pooled microsomes were used for all in vitro experiments in the present study and prepared from 10 livers/group for all animal species following established protocols. Microsomal fractions were stored at −80 °C until analysis. Protein concentrations in the microsomal fractions were assessed using the bicinchoninic acid protein assay with bovine serum albumin as a standard. Male human hepatic microsomes (pooled sample) (sample LOT: 3043885) were from Gentest Corp. (Woburn, MA, USA). Microsomes from livers of twelve human donors were obtained from Gentest Corp. (Woburn, MA, USA) (cat. no. HG43–1, HG103, HG74, HG93, HG24, HG27, HG23, HG32, HK31, HK34, HG03, and HG42). Each human microsomal sample has been characterized for CYP, FMO and protein contents and specific CYP activities by Gentest Corp. We reanalyzed each microsomal preparation for specific CYP, NADPH:CYP reductase (POR) and FMO activities by assays described in the protocols of Gentest Corp. Our data were similar to those reported by Gentest Corp. in their specification sheets. […]

[1] = without consideration of cytochrome b5

SMILES: COc1cc2c(Nc3ccc(Br)cc3F)ncnc2cc1OCC1CCNCC1 [N-desmethylvandetanib]
- fold increase of N-desmethylvandetanib formation by cytochrome b5 (human recombinant CYP2C8; CYP2C8 with vs without cytochrome b5): 1.6 fold
- contribution of CYP2C8 to N-desmethylvandetanib formation in human liver (human recombinant CYP2C8; [1]): < 0.3%
- effect of cytochrome b5 on N-desmethylvandetanib formation (human recombinant CYP1A1; CYP1A1 with vs without cytochrome b5): essentially no such effect
- contribution of CYP1A1 to N-desmethylvandetanib formation in human liver (human recombinant CYP1A1; [1]): < 0.3%
